Experimental data published in patent US20230104936A1, “TRPML MODULATORS” (Casma Therapeutics, Inc., priority 2019, published 2023).

System: TFEB
Test: TFEB nuclear translocation assay, HeLa wt cells
Type: cell-based
Settings: 2 hrs compound treatment, Table 1 does not say HeLa wt or TRPML1 KO
Summary of the method: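 Using 20× epifluorescence of fixed, anti-TFEB-stained HeLa wt cells treated 2 hrs with compound, nuclear versus perinuclear ring intensity was quantified over four fields per well, yielding AC50 values.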

Row | Structure (SMILES) | AC50 (Homo sapiens, HeLa, 2 h) | AC50
1 | CN(C)S(=O)(=O)c1ccc(S(=O)(=O)Nc2ccccc2N2CC3CCC2CN3c2ccc(Cl)cc2F)cc1 (centres unmarked) [Compound A-26, N4-{2-[5-(4-chloro-2-fluorophenyl)-2,5-diazabicyclo[2.2.2]octan-2-yl]phenyl}-N1,N1-dimethylbenzene-1,4-disulfonamide] | ≤ 2000 nM | 
2 | CC(c1ccccc1N1CCN(C(=O)C(C)(C)C)CC1)S(=O)(=O)c1ccc(S(=O)(=O)N(C)C)cc1 (centres unmarked) [Compound A-474, 4-(1-{2-[4-(2,2-dimethylpropanoyl)piperazin-1-yl]phenyl}ethanesulfonyl)-N,N-dimethylbenzene-1-sulfonamide] | 2010 to 8000 nM | 
3 | CN(C)S(=O)(=O)c1ccc(S(=O)(=O)Nc2cccc(F)c2N2CCC(CN3C4COCC3C4)CC2)cc1 [Compound A-778, N4-3-fluoro-2-[4-(3-oxa-6-azabicyclo[3.1.1]heptan-6-ylmethyl)piperidin-1-yl]phenyl-N1,N1-dimethylbenzene-1,4-disulfonamide] | ≤ 2000 nM | 
4 | CN1CC2(CCN(c3c(NS(=O)(=O)c4ccc(S(=O)(=O)N(C)C)cc4)ccc4c3cnn4C)CC2)c2ccc(F)cc21 [Compound A-247, N4-(4-{6-fluoro-1-methyl-1,2-dihydrospiro[indole-3,4′-piperidin]-1′-yl}-1-methyl-1H-indazol-5-yl)-N1,N1-dimethylbenzene-1,4-disulfonamide] | ≤ 2000 nM | 
5 | C[C@@H]1CN(CC2CCN(c3c(F)cccc3NS(=O)(=O)c3ccc(S(=O)(=O)N(C)C)cc3)CC2)C[C@@H](C)O1 [Compound A-818, N4-[2-(4-{[(2R,6R)-2,6-dimethylmorpholin-4-yl]methyl}piperidin-1-yl)-3-fluorophenyl]-N1,N1-dimethylbenzene-1,4-disulfonamide] | ≤ 2000 nM | 
6 | Cc1nc(C)c(S(=O)(=O)Nc2ccccc2N2CCN(c3ccc(Cl)cc3F)CC2)s1 [Compound A-7, N-{2-[4-(4-chloro-2-fluorophenyl)piperazin-1-yl]phenyl}-2,4-dimethyl-1,3-thiazole-5-sulfonamide] | ≤ 2000 nM | 
7 | Cc1ccc(S(=O)(=O)Nc2ccccc2N2CCC(c3ccccn3)CC2)cc1 [Compound A-92, 4-methyl-N-{2-[4-(pyridin-2-yl)piperidin-1-yl]phenyl}benzene-1-sulfonamide] | ≤ 2000 nM | 
8 | O=C1c2ccccc2S(=O)(=O)N1c1ccccc1N1CCC(c2ccc(Cl)cc2F)CC1 [Compound A-85, 2-{2-[4-(4-chloro-2-fluorophenyl)piperidin-1-yl]phenyl}-2,3-dihydro-1λ^6,2-benzothiazole-1,1,3-trione] | ≥ 10000 nM | 
9 | CC(c1cccc(F)c1N1CCC(CN2CCC(F)(F)CC2)CC1)S(=O)(=O)c1ccc(C(F)F)cc1 (single isomer, unassigned) [Compound A-997, 1-((1-(2-(1-((4-(difluoromethyl)phenyl)sulfonyl)ethyl)-6-fluorophenyl)piperidin-4-yl)methyl)-4,4-difluoropiperidine] | ≤ 2000 nM | 
10 | CC(c1cccc(F)c1N1CCC(CN2C3COCC2C3)CC1)S(=O)(=O)c1ccc(S(=O)(=O)N(C)C)cc1 (centres unmarked) [Compound A-870, 4-((1-(2-(4-((3-oxa-6-azabicyclo[3.1.1]heptan-6-yl)methyl)piperidin-1-yl)-3-fluorophenyl)ethyl)sulfonyl)-N,N-dimethylbenzenesulfonamideformate] |  | ≥ 10000 nM
11 | CN(C)S(=O)(=O)c1ccc(S(=O)(=O)Nc2ccccc2C2=CCN(c3ccc(Cl)cc3F)CC2)cc1 [Compound A-19, N1-(2-(1-(4-chloro-2-fluorophenyl)-1,2,3,6-tetrahydropyridin-4-yl)phenyl)-N4,N4-dimethylbenzene-1,4-disulfonamide] | ≤ 2000 nM | 
12 | CC(C)(C)C(=O)N1CCN(c2ccccc2NS(=O)(=O)Cc2ccc3c(c2)COCC3)CC1 [Compound A-501, 1-(3,4-dihydro-1H-2-benzopyran-7-yl)-N-{2-[4-(2,2-dimethylpropanoyl)piperazin-1-yl]phenyl}methanesulfonamide] | 2010 to 8000 nM | 
13 | CC(c1cccc(F)c1N1CCCCC1)S(=O)(=O)c1ccc(S(=N)(=O)C(F)F)cc1 (single isomer, unassigned) [Compound A-938, (difluoromethyl)(4-((1-(3-fluoro-2-(piperidin-1-yl)phenyl)ethyl)sulfonyl)phenyl)(imino)-l6-sulfanone] |  | ≥ 10000 nM
14 | Cc1nn(S(=O)(=O)c2ccc(S(=O)(=O)N(C)C)cc2)cc1C1=CCN(c2ccc(Cl)cc2F)CC1 [Compound A-37, 4-({4-[1-(4-chloro-2-fluorophenyl)-1,2,3,6-tetrahydropyridin-4-yl]-3-methyl-1H-pyrazol-1-yl}sulfonyl)-N,N-dimethylbenzene-1-sulfonamide] | 2010 to 8000 nM | 
15 | CN(C)S(=O)(=O)c1ccc(S(=O)(=O)N2CC(c3ccc(Cl)cc3F)Nc3ccccc32)cc1 (centres unmarked) [Compound A-171, 4-{[3-(4-chloro-2-fluorophenyl)-1,2,3,4-tetrahydroquinoxalin-1-yl]sulfonyl}-N,N-dimethylbenzene-1-sulfonamide] | 2010 to 8000 nM | 
16 | CC(C)(C)C(=O)N1CCN(c2ccccc2NS(=O)(=O)c2ccc(C(C)(F)F)cc2)CC1 [Compound A-590, 4-(1,1-difluoroethyl)-N-{2-[4-(2,2-dimethylpropanoyl)piperazin-1-yl]phenyl}benzene-1-sulfonamide] | 2010 to 8000 nM | 

Row | Structure (SMILES) | AC50 (Homo sapiens, HeLa, 2 h) | AC50
17 | CC1(C)Cc2cc(S(=O)(=O)Nc3cccc(F)c3N3CCC(CN4C5COCC4C5)CC3)ccc2O1 [Compound A-875, N-{3-fluoro-2-[4-({3-oxa-6-azabicyclo[3.1.1]heptan-6-yl}methyl)piperidin-1-yl]phenyl}-2,2-dimethyl-2,3-dihydro-1-benzofuran-5-sulfonamide] | ≥ 10000 nM | 
18 | C[C@H]1COC[C@H](C)N1CC1CN(c2c(F)cccc2NS(=O)(=O)c2ccc(S(=O)(=O)N(C)C)cc2)C1 (stereo in doubt) [Compound A-916, rel-N4-[2-(3-{[(3R,5R)-3,5-dimethylmorpholin-4-yl]methyl}azetidin-1-yl)-3-fluorophenyl]-N1,N1-dimethylbenzene-1,4-disulfonamide] | ≥ 10000 nM | 
19 | CCC1(N2CCOCC2)CCN(c2ccccc2NS(=O)(=O)c2ccc(S(=O)(=O)N(C)C)cc2)CC1 [Compound A-451, N4-{2-[4-ethyl-4-(morpholin-4-yl)piperidin-1-yl]phenyl}-N1,N1-dimethylbenzene-1,4-disulfonamide] | ≤ 2000 nM | 
20 | Cc1ccc(S(=O)(=O)Nc2ccccc2-n2ccc(-c3ccc(Cl)cc3F)c2)cc1 [Compound A-93, N-{2-[3-(4-chloro-2-fluorophenyl)-1H-pyrrol-1-yl]phenyl}-4-methylbenzene-1-sulfonamide] | ≥ 10000 nM | 
21 | CC(C)c1ccc(S(=O)(=O)Nc2ccccc2N2CCN(C(=O)C(C)(C)C)CC2)cc1 [Compound A-512, N-{2-[4-(2,2-dimethylpropanoyl)piperazin-1-yl]phenyl}-4-(propan-2-yl)benzene-1-sulfonamide] | 2010 to 8000 nM | 
22 | C[C@@H]1CN(C2CCN(c3c(F)cccc3NS(=O)(=O)c3ccc(S(=O)(=O)N(C)C)cc3)CC2)C[C@H](C)O1 [Compound A-868, N4-(2-{4-[(2R,6S)-2,6-dimethylmorpholin-4-yl]piperidin-1-yl}-3-fluorophenyl)-N1,N1-dimethylbenzene-1,4-disulfonamide] | ≤ 2000 nM | 
23 | CN(C)S(=O)(=O)c1ccc(S(=O)(=O)Nc2ccccc2N2CCN(C(=O)C3(F)CC3)CC2)cc1 [Compound A-461, N4-{2-[4-(1-fluorocyclopropanecarbonyl)piperazin-1-yl]phenyl}-N1,N1-dimethylbenzene-1,4-disulfonamide] | 2010 to 8000 nM | 
24 | COCC1(C)CCN(c2ccccc2NS(=O)(=O)c2cc(C3OCCO3)cs2)CC1 [Compound A-619, 4-(1,3-dioxolan-2-yl)-N-{2-[4-(methoxymethyl)-4-methylpiperidin-1-yl]phenyl}thiophene-2-sulfonamide] | 2010 to 8000 nM | 
25 | CN(C)S(=O)(=O)c1ccc(S(=O)(=O)Nc2cccc(F)c2N2CCC(CN3C[C@@H]4C[C@H]3CO4)CC2)cc1 [Compound A-785, N4-[3-fluoro-2-(4-{[(1S,4S)-2-oxa-5-azabicyclo[2.2.1]heptan-5-yl]methyl}piperidin-1-yl)phenyl]-N1,N1-dimethylbenzene-1,4-disulfonamide] | ≤ 2000 nM | 
26 | CN(C)S(=O)(=O)c1ccc(S(=O)(=O)Nc2ccccc2N2[C@@H]3CC[C@H]2CN(c2ccc(Cl)cc2F)C3)cc1 [Compound A-25, N4-{2-[(1R,5S)-3-(4-chloro-2-fluorophenyl)-3,8-diazabicyclo[3.2.1]octan-8-yl]phenyl}-N1,N1-dimethylbenzene-1,4-disulfonamide] | ≤ 2000 nM | 
27 | Cc1cc(S(=O)(=O)Nc2ccccc2N2CCC3(CC2)COC(C)(C)C3)ccc1F [Compound A-661, N-(2-{3,3-dimethyl-2-oxa-8-azaspiro[4.5]decan-8-yl}phenyl)-4-fluoro-3-methylbenzene-1-sulfonamide] | 2010 to 8000 nM | 
28 | O=S(=O)(Nc1ccccc1N1CCC(c2ccc(Cl)cc2F)CC1)c1ccc(F)cc1 [Compound A-74, N-{2-[4-(4-chloro-2-fluorophenyl)piperidin-1-yl]phenyl}-4-fluorobenzene-1-sulfonamide] | 2010 to 8000 nM | 
29 | CN(C)S(=O)(=O)c1ccc(C(=O)Nc2ccccc2N2CCN(c3ccc(Cl)cc3F)CC2)cc1 [Compound A-11, N-{2-[4-(4-chloro-2-fluorophenyl)piperazin-1-yl]phenyl}-4-(dimethylsulfamoyl)benzamide] | ≤ 2000 nM | 
30 | C[C@@H]1CN(CC2CCN(c3c(F)cccc3NS(=O)(=O)c3ccc(S(C)(=N)=O)cc3)CC2)C[C@H](C)O1 (single isomer, unassigned) [Compound A-847] |  | ≥ 10000 nM
31 | COC1(C(=O)N2CCN(c3ccccc3NS(=O)(=O)c3ccc(S(=O)(=O)N(C)C)cc3)CC2)CCCCC1 [Compound A-445, N4-{2-[4-(1-methoxycyclohexanecarbonyl)piperazin-1-yl]phenyl}-N1,N1-dimethylbenzene-1,4-disulfonamide] | ≤ 2000 nM | 
32 | CCOCC1(C)CCN(c2ccccc2NS(=O)(=O)c2ccc(S(=O)(=O)N(C)C)cc2)CC1 [Compound A-719, N4-{2-[4-(ethoxymethyl)-4-methylpiperidin-1-yl]phenyl}-N1,N1-dimethylbenzene-1,4-disulfonamide] | ≤ 2000 nM | 
